Data published in patent publication US20220380430A1, “Non-Transgenic Functional Rescue of Neuropeptides” (Worcester Polytechnic Institute, priority 2021, published 2022).
No end group written: not given here.

System: him-5 and pdf-1 males
Test: Excursion (food-leaving) assay after rescue-by-feeding
Assay type: in vivo, C. elegans
Settings: Probability of Leaving per hour, beyond 35 mm from food
Description: We quantified the behavioral activity of pdf-1 lof males using a food-leaving behavior as previously described. Individuals were placed on a small food spot, and track patterns were scored at three different time points (2, 6, 24 hrs) (FIG. 4A). “Never left food” indicate the absence of tracks outside the food spot. […] “Major excursion” indicates the presence of tracks past the 1 cm boundary (FIG. 1B, Excursion Assay). The food-leaving behavior was quantified as a measure of mate-searching behavior. In this behavior well-fed males left food in search of mates and the data is represented as a Probability of Leaving (PL) (FIG. 7A).
The mate searching behavior of pdf-1 mutants was quantified in a food leaving assay. him-5 animals were used as wild-type control to ensure the presence of males. him-5 and pdf-1 animals were fed OP50, scramble peptide, PDF-1A, PDF-1B, or a 1:1 mixture of PDF-1A and PDF-1B cultures. Four to six larval L4 hermaphrodites were passed onto an NGM plate containing […] AMP and 1 mM IPTG with 75 μL of peptide. These worms were grown at 20° C. for about 4 days until the male progeny of the initial L4 worms were young adults. The day prior to the assay, young adult male pdf-1 or him-5 worms were singled onto 60 mm plates containing lawns of either OP50 (NGM plates) or appropriate peptide cultures (NGM containing […] AMP and 1 mM IPTG). To determine the mate searching effects of pdf-1, we performed a food-leaving assay as described previously in Barrios, A., et al., Nat Neurosci 15, 1675-1682 (2012); Lipton, J., et al., The Journal of neuroscience: the official journal of the Society for Neuroscience 24, 7427-7434 (2004); Ryan, D. A. et al. Curr Biol 24, 2509-2517 (2014), with modifications. In this assay, individuals were placed on a small food spot, and track patterns were scored at the indicated times. Assay plates were prepared one day prior to assaying on 100 mm plates with 10 mL of Leaving Assay media (25 mM KPO4 (pH 6.0), 1 mM MgSO4, 1 mM CaCl2), 50 mM NaCl, 2.5 g/L Peptone, 17 g/L Agar). On center of plate, 7 μL of OP50 was added. Plates were lightly covered and stored at room temperature overnight (˜20° C., <40% humidity).
On the day of the assay, a single male was plated on the assay plate and placed in a dark, 20° C. incubator. At 2, 6, and 24 hours after the worms are plated, plates were scored for male worm tracks. Scored were separated into binned ranges. “Never left food” indicates the absence of tracks outside the food spot. […] “Major excursion” indicates the presence of tracks past the 1 cm boundary. The food leaving behavior was quantified at three different time points (2, 6, and 24 hours). (FIG. 4A, FIG. 7A, Table IV).
The mate searching defect of pdf-1 was quantified as a Probability of Leaving per hour (PL) (FIG. 4B, FIG. 7B).
The assay was performed across at least two days per condition, with at least n=50, wherein each assay plate with one male is equal to n=1. In all experiments, the investigators were blinded to genotype. Worm in the >35 mm from the center of food bin were scored as “leavers”. The probability of leaving per hour (Probability of Leaving (PL)) was calculated using an R script developed in Barrios et al., with assistance by (Personal Communications to Barrios, 2020). PL was calculated by the “hazard obtained by fitting an exponential parametric survival model to the censored data using maximum likelihood” (Table IV). The PLh-1 values for all pdf-1 animals fed scramble or peptide rescue were compared to him-5 worms fed scramble using an ANOVA followed by Bonferroni's multiple comparison (FIG. 4B, FIG. 7C).

NSKLHRGGGRSRTSGSTGSMASHARGSPGLQ-NH2 [SCRAMBLE, scramble control peptide expressed in E. coli DH5α, negative control, reference compound]
PL (confidence interval) (him-5 males): 0.07727 (0.06532, 0.09141) | PL (confidence interval) (pdf-1 males): 0.03538 (0.02747, 0.04556)
